Values of other authors as cited in US11261449B2, “Anti-cancer RNA aptamers” (CITY OF HOPE, priority 2015, dated 2022).

Assays:
tumor burden = conditions: intravenous injection; cited from earlier work
HepG2 cells = conditions: HepG2, Reebye et al.; cited from earlier work

In the case of “C/EBPα-saRNA: saRNA targeting CCAAT/enhancer-binding protein-α; sense and antisense strands AW1, SEQ ID NO:22/23 (sense CGGUCAUUGUCACUGGUCAUU; antisense UGACCAGUGACAAUGACCGUU; listed as RNA, chemistry not fully specified)”, the tumor burden (tumor burden) is listed as “decreased tumor burden” and the cell proliferation (HepG2 cells) is listed as “decreases cell proliferation in HepG2 cells”.
